In ChEMBL document CHEMBL4359931, “Synthesis, biological evaluation and molecular docking studies of new amides of 4-bromothiocolchicine as anticancer agents” (Bioorg Med Chem, 2019):
pIC50: −log10 of the molar value. Calls of active or inactive are those of the source. No cut-off for these calls is given here.

Experiments:
[1] = Selectivity index, ratio of IC50 of mouse BALB/3T3 cells to IC50 of human LoVo/DX cells; type: toxicity; conditions: BALB/3T3 cells versus LoVo/DX cells, read-out: Ratio IC50
[2] = Antiproliferative activity against human ALL5 cells assessed as reduction in cell viability incubated for 120 hrs by MTT assay; type: functional, cell-based; conditions: ALL5, 120 h
[3] = Cell cycle arrest in human ALL5 cells assessed as accumulation in subG1 phase at 5 times of antiproliferative IC50 incubated for 24 hrs by propidium iodide based flow cytometry (reference value: 10.5 %); type: functional
[4] = species: Homo sapiens; experiment: Induction of cell death in human ALL5 cells assessed as decrease in 4 N DNA at 5 times of antiproliferative IC50 incubated for 72 hrs by propidium iodide based flow cytometry; type: functional
[5] = species: Homo sapiens; experiment: Induction of apoptosis in human ALL5 cells assessed as increase in 85 kDa PARP expression at 26.5 uM incubated for 24 and 48 hrs by immunoblot analysis; type: functional, cell-based
[6] = test system: MCF7; experiment: Cell cycle arrest in human MCF7 cells assessed as accumulation in subG1 phase at 5 times of antiproliferative IC50 incubated for 72 hrs by propidium iodide based flow cytometry (reference value: 3.59 %); type: functional
[7] = Cell cycle arrest in human ALL5 cells assessed as accumulation in G2 phase at 5 times of antiproliferative IC50 incubated for 72 hrs by propidium iodide based flow cytometry (reference value: 11.3 %); type: functional
[8] = Cell cycle arrest in human ALL5 cells assessed as accumulation in G2 phase at 5 times of antiproliferative IC50 incubated for 24 hrs by propidium iodide based flow cytometry (reference value: 10.6 %); type: functional
[9] = Selectivity index, ratio of IC50 of mouse BALB/3T3 cells to IC50 of human LoVo cells; type: toxicity; conditions: BALB/3T3 cells versus LoVo cells, read-out: Ratio IC50
[10] = test system: MCF7; experiment: Cell cycle arrest in human MCF7 cells assessed as accumulation in subG1 phase at 5 times of antiproliferative IC50 incubated for 24 hrs by propidium iodide based flow cytometry (reference value: 7.79 %); type: functional
[11] = test system: MCF7; experiment: Antiproliferative activity against human MCF7 cells assessed as reduction in cell viability incubated for 120 hrs by MTT assay; type: functional, cell-based; conditions: MCF7, 120 h
[12] = Cell cycle arrest in human ALL5 cells assessed as accumulation in G2 phase at 5 times of antiproliferative IC50 incubated for 48 hrs by propidium iodide based flow cytometry (reference value: 11.2 %); type: functional
[13] = test system: MCF7; experiment: Cell cycle arrest in human MCF7 cells assessed as accumulation in G2 phase at 5 times of antiproliferative IC50 incubated for 24 hrs by propidium iodide based flow cytometry (reference value: 22.4 %); type: functional
[14] = Selectivity index, ratio of IC50 of mouse BALB/3T3 cells to IC50 of human MCF7 cells; type: toxicity; conditions: BALB/3T3 cells versus MCF7 cells, read-out: Ratio IC50
[15] = test system: MCF7; experiment: Cell cycle arrest in human MCF7 cells assessed as accumulation in G1 phase at 5 times of antiproliferative IC50 incubated for 72 hrs by propidium iodide based flow cytometry (reference value: 58 %); type: functional
[16] = species: Homo sapiens; experiment: Induction of cell cycle arrest in human ALL5 cells assessed as increase in 4 N DNA at 5 times of antiproliferative IC50 incubated for 24 hrs by propidium iodide based flow cytometry; type: functional
[17] = test system: MCF7; experiment: Cell cycle arrest in human MCF7 cells assessed as accumulation in S phase at 5 times of antiproliferative IC50 incubated for 72 hrs by propidium iodide based flow cytometry (reference value: 19.8 %); type: functional
[18] = Selectivity index, ratio of IC50 of mouse BALB/3T3 cells to IC50 of human ALL5 cells
[19] = test system: MCF7; experiment: Cell cycle arrest in human MCF7 cells assessed as accumulation in S phase at 5 times of antiproliferative IC50 incubated for 24 hrs by propidium iodide based flow cytometry (reference value: 19.9 %); type: functional
[20] = test system: MCF7; experiment: Cell cycle arrest in human MCF7 cells assessed as accumulation in G2 phase at 5 times of antiproliferative IC50 incubated for 72 hrs by propidium iodide based flow cytometry (reference value: 18.6 %); type: functional
[21] = Cell cycle arrest in human ALL5 cells assessed as accumulation in S phase at 5 times of antiproliferative IC50 incubated for 48 hrs by propidium iodide based flow cytometry (reference value: 10.3 %); type: functional
[22] = test system: MCF7; experiment: Cell cycle arrest in human MCF7 cells assessed as accumulation in S phase at 5 times of antiproliferative IC50 incubated for 48 hrs by propidium iodide based flow cytometry (reference value: 34 %); type: functional
[23] = Selectivity index, ratio of IC50 of mouse BALB/3T3 cells to IC50 of human A549 cells
[24] = species: Homo sapiens; experiment: Induction of apoptosis in human ALL5 cells assessed as reduction in 116 kDa PARP expression at 26.5 uM incubated for 24 and 48 hrs by immunoblot analysis; type: functional, cell-based
[25] = Cell cycle arrest in human ALL5 cells assessed as accumulation in G1 phase at 5 times of antiproliferative IC50 incubated for 24 hrs by propidium iodide based flow cytometry (reference value: 68.1 %); type: functional
[26] = Cell cycle arrest in human ALL5 cells assessed as accumulation in S phase at 5 times of antiproliferative IC50 incubated for 24 hrs by propidium iodide based flow cytometry (reference value: […]); type: functional
[27] = Resistance index, ratio of IC50 of human LoVo/DX cells to IC50 of human LoVo cells; type: functional
[28] = Cell cycle arrest in human ALL5 cells assessed as accumulation in S phase at 5 times of antiproliferative IC50 incubated for 72 hrs by propidium iodide based flow cytometry (reference value: 13.5 %); type: functional
[29] = test system: LoVo; experiment: Antiproliferative activity against human LoVo cells assessed as reduction in cell viability incubated for 120 hrs by MTT assay; type: functional, cell-based
[30] = test system: BALB/3T3; experiment: Antiproliferative activity against mouse BALB/3T3 cells assessed as reduction in cell viability incubated for 120 hrs by MTT assay; type: cell-based; conditions: BALB/3T3, 120 h
[31] = test system: MCF7; experiment: Cell cycle arrest in human MCF7 cells assessed as accumulation in G2 phase at 5 times of antiproliferative IC50 incubated for 48 hrs by propidium iodide based flow cytometry (reference value: 16 %); type: functional
[32] = test system: MCF7; experiment: Cell cycle arrest in human MCF7 cells assessed as accumulation in subG1 phase at 5 times of antiproliferative IC50 incubated for 48 hrs by propidium iodide based flow cytometry (reference value: 9.19 %); type: functional
[33] = test system: MCF7; experiment: Cell cycle arrest in human MCF7 cells assessed as accumulation in G1 phase at 5 times of antiproliferative IC50 incubated for 24 hrs by propidium iodide based flow cytometry (reference value: 49.9 %); type: functional
[34] = Cell cycle arrest in human ALL5 cells assessed as accumulation in G1 phase at 5 times of antiproliferative IC50 incubated for 72 hrs by propidium iodide based flow cytometry (reference value: 59.7 %); type: functional
[35] = Cell cycle arrest in human ALL5 cells assessed as accumulation in subG1 phase at 5 times of antiproliferative IC50 incubated for 72 hrs by propidium iodide based flow cytometry (reference value: 15.5 %); type: functional
[36] = Cell cycle arrest in human ALL5 cells assessed as accumulation in G1 phase at 5 times of antiproliferative IC50 incubated for 48 hrs by propidium iodide based flow cytometry (reference value: 67.4 %); type: functional
[37] = Antiproliferative activity against human LoVo/DX cells assessed as reduction in cell viability incubated for 120 hrs by MTT assay; type: functional, cell-based
[38] = test system: MCF7; experiment: Cell cycle arrest in human MCF7 cells assessed as accumulation in G1 phase at 5 times of antiproliferative IC50 incubated for 48 hrs by propidium iodide based flow cytometry (reference value: 40.8 %); type: functional
[39] = test system: A549; experiment: Antiproliferative activity against human A549 cells assessed as reduction in cell viability incubated for 120 hrs by MTT assay; type: functional, cell-based; conditions: A549, 120 h
[40] = species: Homo sapiens; experiment: Induction of cell cycle arrest in human ALL5 cells assessed as increase in 4 N DNA at 5 times of antiproliferative IC50 incubated for 48 hrs by propidium iodide based flow cytometry; type: functional
[41] = Cell cycle arrest in human ALL5 cells assessed as accumulation in subG1 phase at 5 times of antiproliferative IC50 incubated for 48 hrs by propidium iodide based flow cytometry (reference value: 11 %); type: functional
[42] = species: Homo sapiens; experiment: Induction of apoptosis in human ALL5 cells assessed as increase in 85 kDa PARP expression at 43 uM incubated for 48 hrs by immunoblot analysis; type: functional, cell-based
[43] = species: Homo sapiens; experiment: Induction of apoptosis in human ALL5 cells assessed as reduction in 116 kDa PARP expression at 43 uM incubated for 24 and 48 hrs by immunoblot analysis; type: functional, cell-based

With COCC(=O)N[C@H]1CCc2c(Br)c(OC)c(OC)c(OC)c2-c2ccc(SC)c(=O)cc21 the selectivity ratio [1] was 0.2, the pIC50 [2] was 8.28 and the Activity [3] was 17.1%. For the same molecule, the Activity [4] was “Active”, the Activity [5] was “Active” and the Activity [6] was 15.1%. It also gave an Activity [7] of 8.92%, an Activity [8] of 16.5% and a selectivity ratio [9] of 1.5. For the same molecule, the Activity [10] was 6.3%, the pIC50 [11] was 7.94 and the Activity [12] was 20.6%. The Activity [13] was 74.7%, the selectivity ratio [14] was 1 and the Activity [15] was 11.9%. For the same molecule, the Activity [16] was “Active”, the Activity [17] was 7.98% and the “Ratio IC50” value [18] was 2.2. The Activity [19] was 9.28%, the Activity [20] was 65% and the Activity [21] was 15.3%. The Activity [22] was 20.3%, the “Ratio IC50” value [23] was 1.1 and the Activity [24] was “Active”. The Activity [25] was 52.3%, the Activity [26] was 14.1% and the “Ratio IC50” value [27] was 9.3. It also gave an Activity [28] of 25%, a pIC50 [29] of 8.12 and a pIC50 [30] of 7.94. It also gave an Activity [31] of 54.3%, an Activity [32] of 13.5% and an Activity [33] of 9.68%. The Activity [34] was 29.3%, the Activity [35] was 36.8% and the Activity [36] was 35%. It also gave a pIC50 [37] of 7.15, an Activity [38] of 11.9% and a pIC50 [39] of 7.99. The Activity [40] was “Active” and the Activity [41] was 29.1%.

With COc1cc2c(c(OC)c1OC)-c1ccc(OC)c(=O)cc1[C@@H](NC(C)=O)CC2 [COLCHICINE] the pIC50 [2] was 8.07, the Activity [3] was 19.7% and the Activity [4] was “Active”. The Activity [6] was 12.6%, the Activity [7] was 9.05% and the Activity [8] was 14.4%. It also gave an Activity [10] of 5.51%, an Activity [12] of 22.3% and an Activity [13] of 72.2%. For the same molecule, the Activity [15] was 16%, the Activity [16] was “Active” and the Activity [17] was 7.4%. It also gave an Activity [19] of 13%, an Activity [20] of 64% and an Activity [21] of 17.1%. It also gave an Activity [22] of 7.86%, an Activity [25] of 54% and an Activity [26] of 12%. It also gave an Activity [28] of 17.1%, an Activity [31] of 68.3% and an Activity [32] of 9.33%. For the same molecule, the Activity [33] was 9.33%, the Activity [34] was 21.7% and the Activity [42] was “Active”. The Activity [35] was 52.1%, the Activity [36] was 33.2% and the Activity [43] was “Active”. For the same molecule, the Activity [38] was 14.5%, the Activity [40] was “Active” and the Activity [41] was 27.4%.
